Key:
Format in all cases: cell-based
[1] = biological target: T1, protein TAZ (Homo sapiens, UniProt Q9GZV5); experiment: Stimulating TAZ protein migration toward nucleus (GFP-TAZ high-content imaging); conditions: 0.5 h, after 30 minutes, Cos cells, percentage based on non-treated control cells, read-out: Expression (%): GFP expression of protein TAZ in the nucleus
T1 construct: introducing full length TAZ cDNA synthesized by PCR method into vector pEGFP; expressed in transfected cells
Method: Vector pEGFP-TAZ in which GFP (green fluorescence protein) is linked to protein TAZ was prepared, and nucleus specific histone protein (RFP-H2B) expression vector having introduced RFP (red fluorescence protein) therein was prepared. The vector pEGFP-TAZ was prepared by introducing full length TAZ cDNA synthesized by PCR method into vector pEGFP (Invitrogen, Carlsbad, Calif., USA) and then cloning. The expression vector RFP-H2B was prepared by introducing full length histone H2B cDNA into expression vector RFP (Clontech Laboratories, Inc., Palo Alto, Calif., USA) and then cloning.
Cos? cells (ATCC, Manassas, Va.) were distributed to each well of a 96-well plate (5×10^3 cells/well) and stabilized, and then vectors pEGFP-TAZ and RFP-H2B were introduced into the cells by employing Effectene™ (Qiagen). After 48 hours, the cells were treated with each of the inventive compounds to a concentration of 10 μM. After 30 minutes, the movement of green fluorescent color toward the cell nucleus was observed continually by employing BD Pathway™ high-content bioimager (BD bioscience). Using a quantification program (BD IPLab™ for Pathway and BD™ Image Data Explorer), GFP expression in the nucleus of RFP-expressed cells was quantified.
GFP expressions of protein TAZ in the nucleus were analyzed and calculated in percentage term based on that of non-treated cells in a control group, which are shown in Table 3.

[2] = tested on: PPARγ; experiment: TAZ activity of inhibiting PPARγ function (aP2-luc reporter in 293T cells); conditions: Homo sapiens, HEK-293T, 24 h, percentage based on inhibitory effect in non-treated control cells, read-out: Increased inhibition (%) of aP2 promoter activity
From the text: 293T cells (ATCC) were placed in the wells of a 48-well plate (1×10^5 cells/well) and stabilized. Introduced to the cells were PPARγ and TAZ expression vectors together with vectors aP2-luc (adipose fatty acid binding protein 2 promoter linked to luciferase) and pCMVβ Hong et al., Science 2005; 309:1074-8]. For observing the effect on transcription activation of the target gene by the PPARγ or TAZ protein expression, aP2-luc reporter gene was also introduced into the cells. For calibration of the introduction efficiency in cells, vector pCMVβ was introduced in cells in same amounts and the β-galactosidase activity was measured to calibrate the luciferase activity.
After 24 hours, the cells were treated with each of the inventive compounds to a concentration of 10 μM and then further cultivated for 24 hours. Proteins of the resulting cells were extracted with a lysis solution comprising NP-40, and thus luciferase activity was measured (Promega, Sunnyvale, Calif., USA).
Increased inhibitory effect on the aP2 promoter activity was analyzed and the results were calculated in percentage term based on the inhibitory effect on the aP2 promoter activity observed for the non-treated cells in a control group.

[3] = tested on: RUNX2; experiment: TAZ activity of stimulating RUNX2 function (6xOSE-luc reporter in 293T cells); conditions: for activity at 10 µM: Homo sapiens, HEK-293T, 24 hours, 293T cells, percentage based on non-treated control cells, read-out: Activity (%): osteocalcin promoter activity; for Additional stimulating activity on TAZ stimulation of RUNX2: 10 μM, considered additional when value exceeds 570% of the average increase by protein TAZ
Method: Introduced in 293T cells were introduced RUNX2 and TAZ expression vector together with 6×OSE-luc (osteocalcin-specific element linked to luciferase, six copies of RUNX2-binding site in the osteocalcin promoter linked to luciferase) [Hong et al., Science 2005; 309:1074-8]. This test was for an evaluation of an activity of the inventive compounds in stimulating the luciferase activity which increases when RUNX2 binds to TAZ.
After 24 hours, the cells were treated with each of the inventive compounds to a concentration of 10 μM and then further cultivated for 24 hours. The procedure of Test 2 was repeated to extract the cell protein, and then reporter gene analysis was conducted to quantify the effect of the inventive compounds on the TAZ activity in stimulating RUNX2. For comparing the transformation efficaciency, β-galactosidase expression vector (pCMVβ) was introduced to 293T cells and the β-galactosidase activity was measured for calibration.
The osteocalcin promoter activity was analyzed in percentage term based on that of non-treated cells in a control group. When the value exceeds 570% of the average increase by protein TAZ, the compound was considered to have an additional stimulating activity.

[4] = tested on: 3T3-L1 preadipocytes; experiment: Differentiation of 3T3-L1 cells into adipocytes (Oil-red O staining); conditions: for Inhibition of adipocyte differentiation (Oil-red O staining): compound added at each medium replacement, after 8 days
Method: 3T3-L1 preadipocytes (ATCC CL-173) were dispersed in a DMEM medium comprising 10% FBS (fatal bovine serum , and then confluently cultivated for 48 hours in a 24-well plate (3×10^4 cells/well). 2 μM rosiglitazone, 5 μg/mL insulin, and 1 μM dexamethasone were added thereto to induce adipocyte differentiation.
After 48 hours, the medium was replaced with a DMEM comprising 5 μg/mL insulin and 10% FBS (fatal bovine serum), and 48 hours later, the medium was replaced with a DMEM comprising 10% FBS. Then, the medium was replaced every 48 hours to evaluate adipocyte differentiation. The inventive compounds were each added during the replacement of the medium. After 8 days, the cells were fixed with 10% formalin, and Oil-red O staining was conducted to confirm adipocytes generated in cells.

[5] = tested on: C3H10T1/2 cells; experiment: Differentiation of C3H10T1/2 cells into osteoblasts (Alizarin red S staining); conditions: 10 μM, after 20 days
Method: C3H10T1/2 cells (ATCC CCL 226) were diluted in a α-MEM medium comprising 10% FBS, cultivated in a 96-well plate (1×10^4 cells/well) for 48 hours, and the medium was replaced every 48 hours to observe the osteoblast differentiation. On the initiation of differentiation, the medium was treated with 10 μM of each of the inventive compounds.
After 20 days, the cells were fixed with 70% ethanol and stained with an Alizarin red S solution to confirm increased calcium in osteocytes. In the Alizarin red staining test, the degrees of osteoblast differention can be identified by the intensity of red color.

T1 sequence (Q9GZV5 whole entry): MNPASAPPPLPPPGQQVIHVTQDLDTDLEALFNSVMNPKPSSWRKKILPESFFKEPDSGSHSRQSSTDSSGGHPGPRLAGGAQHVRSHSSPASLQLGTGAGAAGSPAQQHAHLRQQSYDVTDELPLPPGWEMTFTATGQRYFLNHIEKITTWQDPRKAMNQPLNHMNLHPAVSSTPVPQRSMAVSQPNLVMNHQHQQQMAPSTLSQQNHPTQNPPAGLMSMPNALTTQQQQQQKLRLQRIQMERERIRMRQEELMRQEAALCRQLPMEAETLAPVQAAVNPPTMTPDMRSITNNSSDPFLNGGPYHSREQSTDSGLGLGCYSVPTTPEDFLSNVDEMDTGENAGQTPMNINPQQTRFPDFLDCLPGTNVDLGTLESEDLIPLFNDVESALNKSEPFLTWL

activity at 10 µM [1] | Structure (SMILES) | inhibition at 10 µM [2] | activity at 10 µM [3] | Inhibition of adipocyte differentiation (Oil-red O staining) [4] | Stimulation of osteoblast differentiation (Alizarin red staining) [5] | Additional stimulating activity on TAZ stimulation of RUNX2 [3] | Inhibition of adipocyte differentiation at a higher concentration ([4]; treating at a higher concentration)
130% | CCc1nc2c(C)cc(CO)nc2n1Cc1ccc(-c2ccccc2-c2nnn[nH]2)cc1 [II, {2-ethyl-7-methyl-3-[2′-(1H-tetrazol-5-yl)biphenyl-4-ylmethyl]-3H-imidazo [4,5-b]pyridin-5-yl}methanol] | 43.2% | 473% | – | – | – | –
157% | CCCCc1nc2cc(-c3cccnc3)c(C)nc2n1Cc1ccc(-c2ccccc2-c2nnn[nH]2)cc1 [III, 2-butyl-5-methyl-6-pyridin-3-yl-3-[2′-(1H-tetrazol-5-yl)biphenyl-4-ylmethyl]-3H-imidazo[4,5-b]pyridine] | > 60% | 259% | adipocyte differentiation was inhibited | osteoblast differentiation was stimulated | – | –
135% | CCCCc1nc2cc(-c3ccccn3)c(C(=O)OC)nc2n1Cc1ccc(-c2ccccc2-c2nnn[nH]2)cc1 [IV, methyl 2-butyl-6-pyridin-2-yl-3-[2′-(1H-tetrazol-5-yl)biphenyl-4-ylmethyl]-3H-imidazo[4,5-b]pyridine-5-carboxylate] | – | 463% | adipocyte differentiation was inhibited | – | – | –
147% | CCCCc1nc2cc(Br)c(COC(C)=O)nc2n1Cc1ccc(-c2ccccc2-c2nnnn2C(C)OCC)cc1 (centres unmarked) [IX, 6-bromo-2-butyl-3-{2′-[1-(1-ethoxyethyl)-1H-tetrazol-5-yl]biphenyl-4-ylmethyl}-3H-imidazo[4,5-b]pyridin-5-ylmethyl acetate] | 22.7% | 676% | – | – | additional stimulating activity was observed | –
151% | CCCCc1nc2c(C)cc(CO)nc2n1Cc1ccc(-c2ccccc2-c2nnn[nH]2)cc1 [V, {2-butyl-7-methyl-3-[2′-(1H-tetrazol-5-yl)biphenyl-4-ylmethyl]-3H-imidazo[4,5-b]pyridin-5-yl}methanol] | 32.3% | 468% | – | osteoblast differentiation was stimulated | – | –
132% | CCCCc1nc2cc(-c3cccc[n+]3[O-])c(CF)nc2n1Cc1ccc(-c2ccccc2-c2nnn[nH]2)cc1 [VI, 2-butyl-5-fluoromethyl-6-(1-oxypyridin-2-yl)-3-[2′-(1H-tetrazol-5-yl)biphenyl-4-ylmethyl]-3H-imidazo[4,5-b]pyridine] | 51.3% | 483% | – | – | – | –
160% | CCCCc1nc2cc(C(O)c3ccccc3)c(C(OC)OC)nc2n1Cc1ccc(-c2ccccc2-c2nnnn2C(C)OCC)cc1 (centres unmarked) [VII, (2-butyl-5-dimethoxymethyl-3-{2′-[1-(1-ethoxyethyl)-1H-tetrazol-5-yl]biphenyl-4-ylmethyl}-3H-imidazo[4,5-b]pyridin-6-yl)phenylmethanol] | 46.7% | 476% | – | – | – | markedly increased inhibitory effect
– | CCCCc1nc2cc(C(O)c3ccccc3)c(C(OC)OC)nc2n1Cc1ccc(-c2ccccc2-c2nnn[nH]2)cc1 (centres unmarked) [VIII, {2-butyl-5-dimethoxymethyl-3-[2′-(1H-tetrazol-5-yl)biphenyl-4-ylmethyl]-3H-imidazo[4,5-b]pyridin-6-yl}phenylmethanol] | > 60% | 688% | – | – | additional stimulating activity was observed | –
– | CCCCc1nc2cc(Br)c(COC(C)=O)nc2n1Cc1ccc(-c2ccccc2-c2nnn[nH]2)cc1 [X, 6-bromo-2-butyl-3-[2′-(1H-tetrazol-5-yl)biphenyl-4-ylmethyl]-3H-imidazo[4,5-b]pyridin-5-ylmethyl acetate] | 57.5% | 672% | – | – | additional stimulating activity was observed | –
134% | CCCCc1nc2c(C)c(-c3ccccc3)c(COCSC)nc2n1Cc1ccc(-c2ccccc2-c2nnn[nH]2)cc1 [XI, 2-butyl-7-methyl-5-((methylsulfanylmethoxy)methyl)-6-phenyl-3-[2′-(1H-tetrazol-5-yl)biphenyl-4-ylmethyl]-3H-imidazo[4,5-b]pyridine] | – | 754% | – | – | additional stimulating activity was observed | –
149% | CCCCc1nc2cc(C(=O)OC)c(/C=C/c3ccccc3)cc2n1Cc1ccc(-c2ccccc2-c2nnn[nH]2)cc1 [XII, methyl 2-butyl-6-styryl-1-[2′-(1H-tetrazol-5-yl)biphenyl-4-ylmethyl]-1H-benzimidazol-5-carboxylate] | > 60% | 296% | adipocyte differentiation was inhibited | – | – | –
– | CCCCc1nc2cc(/C=C/c3ccccc3)c(C(=O)OC)cc2n1Cc1ccc(-c2ccccc2-c2nnn[nH]2)cc1 [XIII, methyl 2-butyl-5-styryl-1-[2′-(1H-tetrazol-5-yl)biphenyl-4-ylmethyl]-1H-benzimidazol-6-carboxylate] | 39.9% | 569% | – | – | – | –

— US9090608B2, “Pharmaceutical composition for preventing or treating osteoporosis or obesity comprising phenyltetrazole derivative” (KOREA RESEARCH INSTITUTE OF CHEMICAL TECHNOLOGY, priority 2009, dated 2015)
